Source: publication PMC3939009, “Thrombin inhibitory activity of some polyphenolic compounds” (Medicinal Chemistry Research, 2013)
pIC50, pKd: −log10 of the molar value. Where two headings read alike, the source gives them in different places.

Key:
human thrombin [1] = experiment: Thrombin-induced platelet aggregation (turbidimetric); format: cell-based; conditions: compound 50 μM preincubated with thrombin
Protocol: Blood samples in 0.32 % sodium citrate from healthy volunteers without cardiovascular disorders were collected, untreated with antiplatelet drugs. […] Platelets were isolated from PRP using BSA–Sepharose 2B gel filtration method according to Walkowiak et al. ([2000]). […] In these preparations, to nine volumes of thrombin one volume of polyphenolic compounds was added (final thrombin concentration was 15.8 nM). All tested compounds were dissolved in 50 % DMSO to the initial concentration of 10 mM; other solutions of compounds were also prepared in 50 % DMSO (prepared in 50 mM TBS, pH 7.4). […] The platelet aggregation was measured by turbidimetric method (Saluk-Juszczak et al., [2007]) using dual-channel Chrono-log optical aggregometer (Chronolog, USA). […] Platelet suspensions were pre-warmed at 37 °C with stirring.

[2] = design: method as in Mozzicafreddo et al. ([2006]); conditions: ref Mozzicafreddo et al. ([2006]); cited from earlier work
human thrombin [3] = target: T1, human thrombin (Homo sapiens, UniProt P00734); experiment: Thrombin-induced fibrinogen polymerization; format: biochemical; design: Thrombin, also known as an active plasma coagulation factor II; purchased Sigma-Aldrich Chemical Co. (St. Louis, MO, USA) T7009; conditions: thrombin preincubated with compound
Protocol: In these preparations, to nine volumes of thrombin one volume of polyphenolic compounds was added (final thrombin concentration was 15.8 nM). All tested compounds were dissolved in 50 % DMSO to the initial concentration of 10 mM; other solutions of compounds were also prepared in 50 % DMSO (prepared in 50 mM TBS, pH 7.4). […] Polymerization of fibrin was monitored at 595 nm using a 96-well microtiter plate reader. To each reaction well of the microtiter plate, 100 μl of fibrinogen (3 mg/ml) in 50 mM TBS and 5 mM CaCl2, pH 7.4, were added. […] The maximal velocity of the polymerization process (V max, Δm OD/min) for each absorbance curve was determined (Nowak et al., [2007]).

human thrombin [4] = target: T1, human thrombin; experiment: BIAcore (SPR) analysis of binding to immobilized thrombin; design: Thrombin, also known as an active plasma coagulation factor II; purchased Sigma-Aldrich Chemical Co. (St. Louis, MO, USA) T7009
Protocol: The biosensor assays were performed using the BIAcore 1000 biosensor system. All biosensor analyses were performed with a phosphate-buffered saline (PBS), pH 7.4, as a running buffer. […] The immobilization of thrombin on a biosensor carboxylmethyl dextran surface was performed according to the BIA applications Handbook (BIAcore, [1994]). The process of protein immobilization was performed on a sensor chip CM5 surface by the positively charged functional groups of protein amino acids. The immobilization process consisted of four steps: preconcentration, activation, ligand immobilization and deactivation of the residual NHS esters. […] The temperature during the whole experiment was also constant and was set to 25.0 °C. […] Each of these solutions (10 μl) was injected into an empty sensor chip channel. […] The amount of injected activation mixture was modified, to regulate the amount of immobilized ligand. […] The conditions of the latter experiments were established by numerous pre-tests. The assessed parameters included: the buffer flow rate, the volume of analyte injection, the concentration of analytes, types and concentration of regenerators. […] For each injection of analyte solution, the volume used was 100 μl. After injection of analyte was completed, the dissociation step occurred and the level of the interaction ligand-analyte was measured. During dissociation, the particles non-covalently bound to the ligand were washed out from the working channel. […] To do these calculations, the formulas presented below were used: the association rate […]]; the dissociation rate -d[AB]/dt=kd·[AB]; the equilibrium constants: KA=[AB]/[A]·[B]=ka/kd KD=[A]·[B]/[AB]=kd/ka.

human thrombin [5] = target: T1, human thrombin; experiment: Analysis of thrombin inhibition parameters (Lineweaver–Burk curves); format: biochemical; design: Thrombin, also known as an active plasma coagulation factor II; purchased Sigma-Aldrich Chemical Co. (St. Louis, MO, USA) T7009
Protocol: Absorbance was monitored every 12 s for 10 min in a 96-well microplate reader. The velocity of reaction was expressed as the increase in product (pNA) over time (∆ μmol/min) using a computer program Mikcroplate Manager® 8 and the extinction coefficient of p-nitroaniline. […] Then, the Lineweaver–Burk ([1934]) curves for thrombin in the presence and in the absence of polyphenol compounds were plotted. The Lineweaver–Burk equation, which is a transformation of the Michaelis–Menten model, looks as follows: 1/V=Km/Vmax·1/[S]+1/Vmax

human thrombin [6] = target: T1, human thrombin; experiment: Amidolytic activity of thrombin (hydrolysis of chromogenic substrate D-Phe-Pip-Arg-pNA); format: biochemical; design: Thrombin, also known as an active plasma coagulation factor II; purchased Sigma-Aldrich Chemical Co. (St. Louis, MO, USA) T7009; host or cells: purified from human plasma; conditions: at 375 μM substrate concentration; compounds 0.1–1,000 μM, preincubation 10 min 37 °C; read-out: IC50, amidolytic activity of human thrombin

O=c1c(O)c(-c2ccc(O)c(O)c2)oc2cc(O)cc(O)c12 [Quercetin, quercetin]
Platelet aggregation, % of control (human thrombin [1]): 4%
Concentration with anti-clotting effect (prolonged thrombin time) [2]: ≥ 100 µM
Effect on thrombin ability to induce fibrinogen polymerization (human thrombin [3]; 10 min 37 °C): inhibition of thrombin ability to induce fibrinogen polymerization
Concentration causing total inhibition of thrombin activity (fibrin polymerization) (human thrombin [3]; Vmax of fibrinogen polymerization at 595 nm): 50 µM
K A, equilibrium association constant (human thrombin [4]): 2.59 × 10^7 M^–1
K A, equilibrium association constant (human thrombin [4]; 5 sensorgrams, 50 to 1,000 μM): 2.59e+07 M⁻¹
pKd (human thrombin [4]; 5 sensorgrams, 50 to 1,000 μM, read-out: K D, equilibrium dissociation constant): 7.41
kon (human thrombin [4]; 5 sensorgrams, 50 to 1,000 μM, read-out: k a, association rate): 43.2 M⁻¹ s⁻¹
koff (human thrombin [4]; 5 sensorgrams, 50 to 1,000 μM, read-out: k d, dissociation rate): 1.67e-06 s⁻¹
Response (RU) (human thrombin [4]; analyte 1,000 μM, thrombin immobilized on CM5 chip): 1,882 RU
k cat (human thrombin [5]; compound at IC50 concentration, k cat = V max/E 0, control 29.1): 27.8 s⁻¹
Type of inhibition (human thrombin [5]; from Lineweaver–Burk curves): competitive inhibitors
V max of chromogenic substrate hydrolysis by thrombin (human thrombin [5]; thrombin incubated with compound at IC50 concentration, control 30.7): 29.4 10^−6 mol/min
K m of chromogenic substrate hydrolysis by thrombin (human thrombin [5]; thrombin incubated with compound at IC50 concentration, control 158.7): 633.8 10^−6 M
pIC50 (human thrombin [6]): 5.82
